From US20230148184A1, “COMPOUNDS AND METHODS FOR MODULATING SPLICING” (REMIX THERAPEUTICS INC., priority 2020, published 2023)

Assays:
Assay type in all cases: cell-based
SMN2 CJ mRNA = test: Gene panel canonical junction qPCR assay, SMN2; conditions: decrease in CJ mRNA levels, RT-qPCR
In short: (§1)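 A673 or K562 cells treated 24 h at 37 °C with 11-point 3-fold dilutions (top 10 uM final, DMSO ≤0.25%); lysates analysed by one-step RT-qPCR for canonical-junction mRNA. ΔCt vs GAPDH, GUSB or PPIA housekeeper, normalised to DMSO (ΔΔCt), converted to RQ via 2^(−ΔΔCt) and percentage response.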

HTT mRNA = test: RT-qPCR splicing assay for HTT mRNA isoforms (canonical junction CJ and alternative junction AJ); conditions: A673 or K562 cell line, 24 hours compound treatment; for IC50: decrease in CJ mRNA; for AC50: increase in AJ mRNA
In short: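 A673 (DMEM, 10% FBS) or K562 (IMDM, 10% FBS) cells were treated 24 h at 37 °C with an 11-point 3-fold series, top dose 10 uM, DMSO ≤0.25%. In lysates, HTT CJ and AJ isoforms were quantified by one-step RT-qPCR and normalized to PPIA (A673) or GAPDH/GUSB (K562), at least in duplicate.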

HTT CJ mRNA = test: Gene panel canonical junction qPCR assay, HTT; conditions: decrease in CJ mRNA levels, RT-qPCR
In short: as §1

Target C CJ mRNA = test: Gene panel canonical junction qPCR assay, Target C; conditions: decrease in CJ mRNA levels, RT-qPCR
In short: as §1

Compound	IC50 (SMN2 CJ mRNA) [nM]	IC50 (HTT mRNA) [nM]	AC50 (HTT mRNA) [nM]	IC50 (HTT CJ mRNA) [nM]	IC50 (Target C CJ mRNA) [nM]
CN(c1ccc2c(n1)OCc1cc(-c3cn[nH]c3)ccc1-2)C1CCNCC1 [Compound 116, N-Methyl-N-[8-(1H-pyrazol-4-yl)-6H-isochromeno[3,4-b]pyridin-3-yl]piperidin-4-amine]	100 to 1000	100 to 1000	1000 to 10000	100 to 1000	100 to 1000
[2H]C([2H])([2H])N(c1ccc2c(n1)OCc1cc(-n3cccn3)ccc1-2)C1CCNCC1 [Compound 176]	1000 to 10000	1000 to 10000	1000 to 10000	1000 to 10000	> 10000
c1cnn(-c2ccc3c(c2)OCCc2cc(N[C@@H]4C[C@H]5CC[C@@H](C4)N5)ccc2-3)c1 [Compound 139, (1R,3S,5S)—N-[5-(pyrazol-1-yl)-8-oxatricyclo [9.4.0.0^[2,7]]pentadeca-1(11),2(7),3,5,12,14-hexaen-13-yl]-8-azabicyclo [3.2.1] octan-3-amine]	> 10000	> 10000	> 10000	> 10000	> 10000
c1cnn(-c2ccc3c(c2)COc2nc(NC4CCNCC4)ccc2-3)c1 [Compound 174]	1000 to 10000	> 10000	> 10000	> 10000	> 10000
c1cnn(-c2ccc3c(c2)COc2nc(N4C[C@H]5CNC[C@H]5C4)ccc2-3)c1 [Compound 185]	1000 to 10000	> 10000	> 10000	> 10000	> 10000
CN(c1ccc2c(n1)OCc1cc(-c3ccn(C)c(=O)c3)ccc1-2)[C@@H]1C[C@H]2CC[C@@H](C1)N2 [Compound 153]	< 100	< 100	< 100	< 100	< 100
CN(c1ccc2c(n1)OCc1cc(-n3cccn3)ccc1-2)[C@@H]1C[C@H]2CC[C@@H](C1)N2 [Compound 149, (exo)-N-methyl-N-[8-(pyrazol-1-yl)-6H-isochromeno[3,4-b]pyridin-3-yl]-8-azabicyclo[3.2.1]octan-3-amine]	100 to 1000	100 to 1000	< 100	100 to 1000	100 to 1000
CN(c1ccc2c(n1)OCc1cc(-c3cnn(C)c3)ccc1-2)[C@@H]1C[C@H]2CC[C@@H](C1)N2 [Compound 150]	> 10000	< 100	< 100	< 100	100 to 1000
Cc1[nH]ncc1-c1ccc2c(c1)COc1nc(N(C)[C@@H]3C[C@H]4CC[C@@H](C3)N4)ccc1-2 [Compound 154]	100 to 1000	100 to 1000	100 to 1000	100 to 1000	100 to 1000
CN1C[C@@H]2CN(c3ccc4c(n3)OCc3cc(-n5cccn5)ccc3-4)C[C@@H]2C1 [Compound 170]	1000 to 10000	1000 to 10000	1000 to 10000	1000 to 10000	> 10000
[2H]C([2H])([2H])N(c1ccc2c(n1)OCc1cc(-n3cccn3)ccc1-2)[C@@H]1C[C@H]2CCC[C@@H](C1)N2 [Compound 200]	< 100	< 100	< 100	< 100	100 to 1000
CC1(C)CC(Nc2ccc3c(n2)OCc2cc(-n4cccn4)ccc2-3)CC(C)(C)N1 [Compound 165]	< 100	100 to 1000	100 to 1000	100 to 1000	100 to 1000
c1cnn(-c2ccc3c(c2)COc2nc(OC4CCNCC4)ccc2-3)c1 [Compound 187]	1000 to 10000	1000 to 10000	> 10000	1000 to 10000	> 10000
CN(c1ccc2c(n1)OCc1cc(-n3nccn3)ccc1-2)[C@@H]1C[C@H]2CC[C@@H](C1)N2 [Compound 151]	< 100	< 100	< 100	< 100	100 to 1000
c1cnn(-c2ccc3c(c2)COc2nc(N4CCC5(CCNC5)CC4)ccc2-3)c1 [Compound 184]	1000 to 10000	1000 to 10000	1000 to 10000	1000 to 10000	1000 to 10000
c1cnn(-c2ccc3c(c2)OCc2nc(N[C@@H]4C[C@H]5CC[C@@H](C4)N5)ccc2-3)c1 [Compound 135, (1R,3S,5S)—N-[8-(pyrazol-1-yl)-5H-chromeno[3,4-b]pyridin-3-yl]-8-azabicyclo[3.2.1]octan-3-amine]	1000 to 10000	1000 to 10000	1000 to 10000	1000 to 10000	1000 to 10000
CN(c1ccc2c(n1)COc1cc(-c3cn[nH]c3)ccc1-2)[C@@H]1C[C@H]2CC[C@@H](C1)N2 [Compound 121, (1R,3S,5S)—N-methyl-N-[8-(1H-pyrazol-4-yl)-5H-chromeno[3,4-b]pyridin-3-yl]-8-azabicyclo[3.2.1]octan-3-amine]	100 to 1000	100 to 1000	100 to 1000	100 to 1000	100 to 1000
CN(c1ccc2c(n1)OCc1cc(-c3cn[nH]c3)ccc1-2)[C@@H]1C[C@H]2CC[C@@H](C1)N2 [Compound 108, (1R,5S)—N-Methyl-N-[8-(1H-pyrazol-4-yl)-6H-isochromeno[3,4-b]pyridin-3-yl]-8-azabicyclo [3.2.1] octan-3-amine]	< 100	< 100	< 100	< 100	< 100
CCN(c1ccc2c(n1)OCc1cc(-n3cccn3)ccc1-2)[C@@H]1C[C@H]2CC[C@@H](C1)N2 [Compound 191]	100 to 1000	100 to 1000	1000 to 10000	100 to 1000	1000 to 10000
c1cnn(-c2ccc3c(c2)COc2nc(O[C@@H]4C[C@H]5CC[C@@H](C4)N5)ccc2-3)c1 [Compound 188]	100 to 1000	100 to 1000	100 to 1000	100 to 1000	1000 to 10000
CN(c1ccc2c(n1)OCc1cc(-c3cnc(=O)[nH]c3)ccc1-2)[C@@H]1C[C@H]2CC[C@@H](C1)N2 [Compound 161]	> 10000	> 10000	> 10000	> 10000	> 10000
CN(c1ccc2c(n1)OCCc1cc(-c3cn[nH]c3)ccc1-2)C1CC(C)(C)NC(C)(C)C1 [Compound 145]	1000 to 10000	> 10000	> 10000	> 10000	1000 to 10000
